These results are taken from patent US7179479B1, “Mosquito repellent isolated from Foeniculum vulgare fruit” (Naturobiotech Co., Ltd., priority 2000, dated 2007).

Data set [1] concerns Aedes aegypti. The data set is described as follows: Patch test of mosquito repellency (landings on treated gauze). It is filed as in vivo. Conditions: for Mosquito repellency of chromatography fractions (active / inert): patch test of Test 1, fractions of the hexane portion. An excerpt: Aedes aegypti were used in the tests of mosquito repellency in the experiments of the present invention. They were provided from the National Institute of Health in Korea and were selected from indoor breeding insects that were not exposed to insecticides or other drugs. Larvae were reared in 30×35×10 cm cages. […] The pupae were transferred to a paper-cup using a spoide and then the paper-cup was moved to a cage being a structure (35×35×35 cm) made from wire. […] For patch test, 35×35×35 cm screen wire cage were used. Tests were conducted on nulliparous females 7-10 days old. The methanol extract and 4 types of portions prepared in the Example 1 and 100 μl of ethanol were applied to a piece of gauze (50 mm-diameter). After drying in the air for 2 minutes, the gauze was put on a rubber glove with a 50 mm-diameter hole punched in it and it was exposed in a cage (35×35×35 cm containing 60 mosquitoes). Because the gauze on the rubber glove was 5 mm away from the skin, mosquitoes would probe through the gauze in an attempt to feed but could not reach the back of the hand. Repellent activity was measured by the number of mosquitoes landing on the gauze for 5 minutes. An untreated gauze (95% ethanol only) was also exposed to mosquitoes in the same manner and considered as a control. The degree of repellency was expressed in terms of percent repellency calculated according to the following equation. [formula] Also, in order to identify mosquito repelling activity, it was compared with synthetic repellent DEET by recording the number of landings.

Data set [2] concerns Aedes aegypti. Kind of data set: Skin test of mosquito repellency (bites on treated skin). It is filed as in vivo. Here is the method:
In order to exactly confirm mosquito repellent activity, the compounds containing repellent activity were further examined by a skin test directly against skin. The cage was covered with a 35×35×35 cm mail net structure. Tests were conducted against nulliparous females 7–10 days old. Both compounds, in 100 μl of ethanol, were applied to a rubber glove surface with a 50 mm diameter hole punched on the hand. After drying in the air for 1 minute, skin was exposed for 5 minutes in a cage containing 60 mosquitoes. Repellent activity was measured by the number of mosquitoes biting the skin. The control treated only with 95% ethanol was also exposed to mosquitoes in the same manner. The degree of repellency was expressed in terms of percent repellency calculated according to the following Equation 2. [formula]

In data set [3] the test system is rat. Conditions: oral administration; cited from earlier work.
The test system of data set [4] is rat. Conditions: epidermal; cited from earlier work.
For data set [5] the following is noted: skin treated with 300 ug/cm^2 DEET, cited from earlier work.
Setting [6] is: patch test, dose 0.004 mg/cm^2 (so in the source).

Values joined by “and” are separate entries in the source; they are usually repeats but may differ in a detail not shown here. Equal values may be shown once. Read-outs that look alike come from different tables or passages of the source.

Consider `CCCCCCCC/C=C/CCCCCCCC(=O)O` [E-9-octadecenoic acid], for which the “Mosquito repellency of chromatography fractions (active / inert)” value with Aedes aegypti [1] was “potent active principles”. The “Repellency (average ± standard deviation, %)” value with Aedes aegypti [1] (setting [6]) was 100a %; in the data set on Aedes aegypti [1] (patch test, dose 0.005 mg/cm^2), 73.4% and 73.4 ± 2.3c %; in the data set on Aedes aegypti [1] (patch test, dose 0.02 mg/cm^2), 98.6 ± 0.9a %; in the data set with Aedes aegypti [2] (dose 0.2 mg/cm^2), 52.3 ± 0.9%; with Aedes aegypti [2] (dose 0.4 mg/cm^2), 80.4% and 80.4 ± 0.2%.
Consider `CC1CCC(C(C)(C)O)C(O)C1` (stereo not shown) [PMD, p-menthan-3,8-diol], for which the LD50 in the data set on rat [3] is on record as 2,408 mg/kg; in the data set on rat [4], > 2,000 mg/kg.
(+)-fenchone: the “Mosquito repellency of chromatography fractions (active / inert)” value with Aedes aegypti [1] is “potent active principles”.
Take `CCN(CC)C(=O)c1cccc(C)c1` [DEET, N,N-diethyl-m-toluamide, reference compound]: the “Repellency (average ± standard deviation, %)” value in the data set with Aedes aegypti [1] (setting [6]) is 100a %; with Aedes aegypti [1] (patch test, dose 0.005 mg/cm^2), 84.6% and 84.6 ± 1.3c %; with Aedes aegypti [1] (patch test, dose 0.01 mg/cm^2) it was 96.4 ± 0.5b %; with Aedes aegypti [1] (patch test, dose 0.02 mg/cm^2), 100a %; in the data set with Aedes aegypti [2] (dose 0.04 mg/cm^2), 98.4 ± 0.5b %; with Aedes aegypti [2] (dose 0.1 mg/cm^2) it was 100a %. Also, the “Repellency (average ± standard deviation, %)” value in the data set on Aedes aegypti [2] (dose 0.2 mg/cm^2) and in the data set with Aedes aegypti [2] (dose 0.4 mg/cm^2) was 100a % throughout. Moreover, in the data set on Aedes aegypti [1] (patch test, dose 0.1 mg/cm^2, A. aegypti females, 5 min exposure), the “Repellency (%)” value is reported as greater than 80%. Further, the results for the skin penetration ratio in data set [5] (after 1 hour) and in data set [5] (after 12 hours) were 30% and 36%, respectively.
In the case of `CC1(C)C(=O)[C@@]2(C)CC[C@@H]1C2` [Fenchone, (+)-fenchone], the “Repellency (average ± standard deviation, %)” value is recorded as 100a % with Aedes aegypti [1] (setting [6]); 82.1 ± 0.7c % in the data set on Aedes aegypti [1] (patch test, dose 0.005 mg/cm^2); 82.1% with Aedes aegypti [1] (patch test, dose 0.005 mg/cm^2, listed as fenchone); 93.9 ± 0.6b % with Aedes aegypti [1] (patch test, dose 0.01 mg/cm^2); “potent repellency comparable with that of DEET” in the data set with Aedes aegypti [1] (patch test, dose 0.01 mg/cm^2, listed as fenchone); 100a % in the data set with Aedes aegypti [1] (patch test, dose 0.02 mg/cm^2). Also, the “Repellency (average ± standard deviation, %)” value is 76.2 ± 0.2c % in the data set on Aedes aegypti [2] (dose 0.04 mg/cm^2); 91.7 ± 0.9b % in the data set with Aedes aegypti [2] (dose 0.1 mg/cm^2); 100a % in the data set with Aedes aegypti [2] (dose 0.2 mg/cm^2); 100a % in the data set with Aedes aegypti [2] (dose 0.4 mg/cm^2); “perfect repellent activity” with Aedes aegypti [2] (dose 0.4 mg/cm^2, listed as fenchone).
